The target of one assay is T1, CFTR ΔF508 mutant (Homo sapiens, UniProt P13569, DEL508-508).
T1 construct: expressed in transfected cells; host or cells: CFBE41o- cells, adenoviral transduction
The assay is described as follows: YFP-halide influx assay for the CFTR-ΔF508 mutation (CFBE41o- cells). Format: cell-based. The settings on record: forskolin 10.67 μM; for EC50: from (1−F/F0) vs concentration plot. In outline: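 EC50 derived from plotting 1−F/F0 (fluorescence 36 s after iodide injection over pre-injection value) against compound concentration. Cells: CFBE41o- transduced with ΔF508-CFTR and YFP quench reporter, corrected 24 h at 27° C or by a CFTR modulator at 37° C.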

For another assay, the target named is T2, CFTR G551D mutant (Homo sapiens, UniProt P13569, G551D).
T2 construct: expressed in transfected cells; host or cells: HEK293 cells, reverse transfection with plasmids
T2 sequence (P13569 whole entry G551D): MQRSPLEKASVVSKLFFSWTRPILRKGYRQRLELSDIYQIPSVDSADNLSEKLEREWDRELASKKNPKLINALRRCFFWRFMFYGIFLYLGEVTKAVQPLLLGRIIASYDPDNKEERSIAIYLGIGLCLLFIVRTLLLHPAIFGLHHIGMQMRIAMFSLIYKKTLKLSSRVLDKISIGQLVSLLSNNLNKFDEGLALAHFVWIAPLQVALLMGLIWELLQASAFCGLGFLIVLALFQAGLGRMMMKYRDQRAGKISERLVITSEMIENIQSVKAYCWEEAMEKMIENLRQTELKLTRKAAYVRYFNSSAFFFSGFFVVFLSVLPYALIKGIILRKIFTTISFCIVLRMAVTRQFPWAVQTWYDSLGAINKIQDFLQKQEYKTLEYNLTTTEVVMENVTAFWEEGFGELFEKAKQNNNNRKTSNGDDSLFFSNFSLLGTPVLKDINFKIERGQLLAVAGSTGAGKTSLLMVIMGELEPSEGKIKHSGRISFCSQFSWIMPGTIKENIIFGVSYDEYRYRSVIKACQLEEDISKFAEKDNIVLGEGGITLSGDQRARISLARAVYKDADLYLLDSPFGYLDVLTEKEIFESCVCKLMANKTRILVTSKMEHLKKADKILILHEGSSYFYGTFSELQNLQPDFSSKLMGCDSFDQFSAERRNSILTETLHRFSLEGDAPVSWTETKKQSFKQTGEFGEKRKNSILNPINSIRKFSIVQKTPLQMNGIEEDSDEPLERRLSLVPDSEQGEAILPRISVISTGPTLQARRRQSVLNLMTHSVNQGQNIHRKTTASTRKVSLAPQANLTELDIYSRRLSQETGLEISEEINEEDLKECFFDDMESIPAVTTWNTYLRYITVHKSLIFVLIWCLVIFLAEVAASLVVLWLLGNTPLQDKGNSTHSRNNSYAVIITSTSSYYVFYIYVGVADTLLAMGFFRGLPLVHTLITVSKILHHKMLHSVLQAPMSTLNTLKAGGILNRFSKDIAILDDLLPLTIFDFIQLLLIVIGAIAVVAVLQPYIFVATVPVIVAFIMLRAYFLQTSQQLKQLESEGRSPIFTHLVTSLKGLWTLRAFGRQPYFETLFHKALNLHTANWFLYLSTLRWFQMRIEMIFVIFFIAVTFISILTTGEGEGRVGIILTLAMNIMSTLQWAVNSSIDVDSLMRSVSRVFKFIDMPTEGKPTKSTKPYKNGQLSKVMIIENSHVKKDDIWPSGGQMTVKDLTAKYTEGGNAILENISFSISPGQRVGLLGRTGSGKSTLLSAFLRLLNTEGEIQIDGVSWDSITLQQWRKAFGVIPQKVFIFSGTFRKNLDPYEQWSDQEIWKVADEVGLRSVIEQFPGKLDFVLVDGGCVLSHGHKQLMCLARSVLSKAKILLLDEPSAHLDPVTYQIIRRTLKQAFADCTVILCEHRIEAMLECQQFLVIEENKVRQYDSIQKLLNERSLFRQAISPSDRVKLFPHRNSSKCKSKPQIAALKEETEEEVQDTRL
Description: YFP-halide influx assay for the CFTR-G551D mutation (HEK293 cells). Format: cell-based. The settings on record: forskolin 10.67 μM. In outline: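 Channel opening read as I⁻-driven quenching of a YFP H148Q/I152L/F47L reporter over 7 s post-injection, expressed as 1−F/F0 and fitted against concentration for EC50. Cells were HEK293 co-transfected at seeding with G551D CFTR plus reporter, then grown 24 h at 37 °C, 5% CO2.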

Each structure is given as a SMILES string.

T1 sequence (P13569 with tags, fused parts or gaps DEL508-508): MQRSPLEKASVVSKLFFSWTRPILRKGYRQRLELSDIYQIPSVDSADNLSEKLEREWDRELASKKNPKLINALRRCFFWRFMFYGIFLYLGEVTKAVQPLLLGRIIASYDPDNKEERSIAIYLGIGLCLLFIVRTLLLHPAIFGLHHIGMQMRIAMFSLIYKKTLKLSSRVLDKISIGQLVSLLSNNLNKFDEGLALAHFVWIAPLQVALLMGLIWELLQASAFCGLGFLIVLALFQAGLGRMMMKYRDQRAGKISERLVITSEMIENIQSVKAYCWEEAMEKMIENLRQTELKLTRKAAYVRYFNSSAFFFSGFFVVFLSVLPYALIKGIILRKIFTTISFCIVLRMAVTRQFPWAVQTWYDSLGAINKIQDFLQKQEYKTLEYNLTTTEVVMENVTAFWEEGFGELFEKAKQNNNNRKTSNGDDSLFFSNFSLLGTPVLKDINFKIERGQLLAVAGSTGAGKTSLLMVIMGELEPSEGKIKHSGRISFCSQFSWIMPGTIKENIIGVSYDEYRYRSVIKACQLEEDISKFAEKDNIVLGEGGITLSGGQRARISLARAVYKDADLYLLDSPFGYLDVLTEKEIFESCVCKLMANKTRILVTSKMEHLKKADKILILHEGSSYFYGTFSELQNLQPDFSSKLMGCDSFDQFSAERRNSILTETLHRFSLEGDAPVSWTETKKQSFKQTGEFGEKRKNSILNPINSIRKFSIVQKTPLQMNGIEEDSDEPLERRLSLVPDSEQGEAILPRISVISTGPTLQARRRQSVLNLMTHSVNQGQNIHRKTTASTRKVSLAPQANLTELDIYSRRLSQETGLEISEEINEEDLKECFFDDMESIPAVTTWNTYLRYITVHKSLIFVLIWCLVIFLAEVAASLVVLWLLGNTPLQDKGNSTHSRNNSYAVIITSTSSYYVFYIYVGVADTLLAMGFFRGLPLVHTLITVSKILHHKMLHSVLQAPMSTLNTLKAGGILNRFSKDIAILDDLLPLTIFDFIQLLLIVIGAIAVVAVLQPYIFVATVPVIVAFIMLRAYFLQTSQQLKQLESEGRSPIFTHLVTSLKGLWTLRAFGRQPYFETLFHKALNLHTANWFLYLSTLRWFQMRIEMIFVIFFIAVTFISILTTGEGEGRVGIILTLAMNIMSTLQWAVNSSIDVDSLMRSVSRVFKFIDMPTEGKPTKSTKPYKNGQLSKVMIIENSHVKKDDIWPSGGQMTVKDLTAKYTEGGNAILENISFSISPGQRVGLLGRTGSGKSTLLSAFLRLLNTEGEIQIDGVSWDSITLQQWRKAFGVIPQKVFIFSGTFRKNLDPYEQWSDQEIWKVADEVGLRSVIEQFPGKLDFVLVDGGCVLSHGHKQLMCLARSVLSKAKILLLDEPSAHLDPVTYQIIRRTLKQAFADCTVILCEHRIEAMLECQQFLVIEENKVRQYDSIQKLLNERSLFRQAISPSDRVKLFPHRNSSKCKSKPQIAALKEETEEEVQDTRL

As for `Nc1cc(S(=O)(=O)c2ccc(OC(F)(F)F)cc2)cnc1C(=O)NC1CCOCC1` [Compound 146, 3-amino-N-(tetrahydro-2H-pyran-4-yl)-5-{[4-(trifluoromethoxy)phenyl]sulfonyl}pyridine-2-carboxamide], the “% Activation” value on CFTR ΔF508 mutant was determined as 88.4%; on CFTR G551D mutant, 58.4%. Besides, the results for the EC50 on CFTR ΔF508 mutant and on CFTR G551D mutant were 91.4 nM and 3110 nM, respectively.
As to `C[C@H]1CCCN1S(=O)(=O)c1cnc(C(=O)NCc2nccc(=O)[nH]2)c(N)c1` [Compound 282, 3-amino-5-{[(2S)-2-methylpyrrolidin-1-yl]sulfonyl}-N-[(6-oxo-1,6-dihydropyrimidin-2-yl)methyl]pyridine-2-carboxamide], on CFTR ΔF508 mutant, the “% Activation” value came to 47.0% and the EC50 was above 667 nM. On CFTR G551D mutant, the “% Activation” value was determined as 1.8% and the EC50 is above 10000 nM.
For `Nc1cc(S(=O)(=O)N2CCOCC2)cnc1C(=O)NCC(O)C(F)(F)F` (stereo not shown) [Compound 139, 3-amino-5-(morpholin-4-ylsulfonyl)-N-(3,3,3-trifluoro-2-hydroxypropyl)pyridine-2-carboxamide], at CFTR ΔF508 mutant, the “% Activation” value worked out at 96.6% and a half-maximal response (EC50) required 61.2 nM. Further, on CFTR G551D mutant, the “% Activation” value turned out to be 40.6% and the EC50 was 5770 nM.
In the same order, the values of `CN1CC[C@@H](NC(=O)c2ncc(S(=O)(=O)c3ccc(OC(F)(F)F)cc3)cc2N)C1` [Compound 208, 3-amino-N-[(3R)-1-methylpyrrolidin-3-yl]-5-{[4-(trifluoromethoxy)phenyl]sulfonyl}pyridine-2-carboxamide] are 70.5%, 290 nM, 20.0% and above 10000 nM.
The like results for `Nc1cc(S(=O)(=O)c2cccc(F)c2)cnc1C(=O)NC[C@@H](O)C(F)(F)F` [Compound 254, 3-amino-5-[(3-fluorophenyl)sulfonyl]-N-[(2R)-3,3,3-trifluoro-2-hydroxypropyl]pyridine-2-carboxamide] were, in that order, 106.0%, 5 nM, 56.0% and 1450 nM.
For `C[C@H](O)CCNC(=O)c1ncc(S(=O)(=O)c2ccc(OC(F)(F)F)cc2)cc1N` [Compound 53, 3-amino-N-[(3S)-3-hydroxybutyl]-5-{[4-(trifluoromethoxy)phenyl]sulfonyl}pyridine-2-carboxamide], at CFTR ΔF508 mutant, the “% Activation” value is 95.6% and a half-maximal effect (EC50) was put at 41.4 nM. For the same compound, at CFTR G551D mutant, the “% Activation” value was found to be 54.0% and a half-maximal response (EC50) required 1820 nM.
The like results for `CC(C)(O)C1CN(C(=O)c2ncc(S(=O)(=O)c3ccc(OC(F)(F)F)cc3F)cc2N)C1` [Compound 174, (3-amino-5-{[2-fluoro-4-(trifluoromethoxy)phenyl]sulfonyl}pyridin-2-yl)[3-(2-hydroxypropan-2-yl)azetidin-1-yl]methanone] were, in that order, 118.3%, 5.9 nM, 50.3% and 371 nM.
In the same order, the values of `COCCNC(=O)c1ncc(S(=O)(=O)c2ccc(C(F)(F)F)cc2)cc1N` [Compound 202, 3-amino-N-(2-methoxyethyl)-5-{[4-(trifluoromethyl)phenyl]sulfonyl}pyridine-2-carboxamide] are 97.6%, 45.5 nM, 45.1% and 1600 nM.
For `Nc1cc(S(=O)(=O)c2ccc(C(F)(F)F)cc2)cnc1C(=O)N1C[C@@H](O)[C@H](O)C1` [Compound 229, (3-amino-5-{[4-(trifluoromethyl)phenyl]sulfonyl}pyridin-2-yl) [(3R,4R)-3,4-dihydroxypyrrolidin-1-yl]methanone], on CFTR ΔF508 mutant, the “% Activation” value is on record as 24.0% and the 50% effective concentration (EC50) was above 2000 nM. Moreover, at CFTR G551D mutant, the “% Activation” value is 1.0% and the EC50 is above 10000 nM.
As to `CC1(C)CN(C(=O)c2ncc(S(=O)(=O)c3ccc(OC(F)(F)F)cc3F)cc2N)C1` [Compound 134, (3-amino-5-{[2-fluoro-4-(trifluoromethoxy)phenyl]sulfonyl}pyridin-2-yl)(3,3-dimethylazetidin-1-yl)methanone], at CFTR ΔF508 mutant, the “% Activation” value was 101.6% and a half-maximal response (EC50) required 43.5 nM. Moreover, on CFTR G551D mutant, the “% Activation” value was 76.8% and it took 1130 nM to reach a half-maximal effect (EC50).
The like results for `CC(C)(O)CNC(=O)c1ncc(S(=O)(=O)c2ccc(F)cc2)cc1N` [Compound 10, 3-amino-5-[(4-fluorophenyl)sulfonyl]-N-(2-hydroxy-2-methylpropyl)pyridine-2-carboxamide] were, in that order, 106.4%, 148 nM, 52.2% and above 3330 nM.
Consider `Nc1cc(S(=O)(=O)c2ccc(OC(F)(F)F)cc2)cnc1C(=O)N1CC2(CCCOC2)C1` [Compound 121, (3-amino-5-{[4-(trifluoromethoxy)phenyl]sulfonyl}pyridin-2-yl)(6-oxa-2-azaspiro[3.5]non-2-yl)methanone], for which, on CFTR ΔF508 mutant, the “% Activation” value came out at 102% and the EC50 was found to be 113 nM. Besides, on CFTR G551D mutant, the “% Activation” value came to 88.6% and the EC50 was determined as 1330 nM.
The like results for `CC1(F)CN(C(=O)c2ncc(S(=O)(=O)c3ccc(C(F)(F)F)cc3)cc2N)C1` [Compound 294, (3-amino-5-{[4-(trifluoromethyl)phenyl]sulfonyl}pyridin-2-yl)(3-fluoro-3-methylazetidin-1-yl)methanone] were, in that order, 97.5%, 9.6 nM, 104.0% and 967 nM.
In the same order, the values of `Nc1cc(S(=O)(=O)c2ccc(C(F)(F)F)cc2)cnc1C(=O)N1CCC[C@H]1CO` [Compound 226, (3-amino-5-{[4-(trifluoromethyl)phenyl]sulfonyl}pyridin-2-yl)[(2S)-2-(hydroxymethyl)pyrrolidin-1-yl]methanone] are 11.9%, above 2000 nM, 1.4% and above 10000 nM.
The like results for `Nc1cc(S(=O)(=O)c2ccc(OC(F)(F)F)cc2)cnc1C(=O)NC1COC2(CCCC2)C1` (stereo not shown) [Compound 150, 3-amino-N-(1-oxaspiro[4.4]non-3-yl)-5-{[4-(trifluoromethoxy)phenyl]sulfonyl}pyridine-2-carboxamide] were, in that order, 116.0%, 355 nM, 49.7% and 1070 nM.
Consider `Nc1cc(S(=O)(=O)N2CC[C@H](F)C2)cnc1C(=O)NCC(O)C(F)(F)F` (stereo partly drawn) [Compound 180, 3-amino-5-{[(3S)-3-fluoropyrrolidin-1-yl]sulfonyl}-N-(3,3,3-trifluoro-2-hydroxypropyl)pyridine-2-carboxamide], for which, at CFTR ΔF508 mutant, the “% Activation” value came out at 97.0% and the EC50 stood at 107 nM. In addition, at CFTR G551D mutant, the “% Activation” value is reported as 30.2% and the concentration giving a half-maximal response (EC50) was above 10000 nM.
For `Nc1cc(S(=O)(=O)c2ccc(C(F)(F)F)cc2)c(C2CC2)nc1C(=O)NCCO` [Compound 258, 3-amino-6-cyclopropyl-N-(2-hydroxyethyl)-5-{[4-(trifluoromethyl)phenyl]sulfonyl}pyridine-2-carboxamide], on CFTR ΔF508 mutant, the “% Activation” value is 119.0% and the EC50 was found to be 9.9 nM. Besides, on CFTR G551D mutant, the “% Activation” value worked out at 108.0% and the EC50 turned out to be 517 nM.
In the same order, the values of `Nc1cc(S(=O)(=O)c2ccc(C(F)(F)F)cc2F)cnc1C(=O)N[C@@H]1COCC[C@@H]1O` (racemic) [Compound 218, rac-3-amino-5-{[2-fluoro-4-(trifluoromethyl)phenyl]sulfonyl}-N-[(3R,4S)-4-hydroxytetrahydro-2H-pyran-3-yl]pyridine-2-carboxamide] are 105.8%, 44.4 nM, 43.8% and 1520 nM.
Consider `CN1CC(NC(=O)c2ncc(S(=O)(=O)c3ccc(OC(F)(F)F)cc3)cc2N)C1` [Compound 210, 3-amino-N-(1-methylazetidin-3-yl)-5-{[4-(trifluoromethoxy)phenyl]sulfonyl}pyridine-2-carboxamide], for which, on CFTR ΔF508 mutant, the “% Activation” value came out at 44.6% and the EC50 was above 667 nM. Further, on CFTR G551D mutant, the “% Activation” value is given as 5.8% and the EC50 is above 10000 nM.
For the compound `CC(C)OCC(O)CNC(=O)c1ncc(S(=O)(=O)c2ccc(OC(F)(F)F)cc2F)cc1N` (stereo not shown) [Compound 168, 3-amino-5-{[2-fluoro-4-(trifluoromethoxy)phenyl]sulfonyl}-N-[2-hydroxy-3-(propan-2-yloxy)propyl]pyridine-2-carboxamide], at CFTR ΔF508 mutant, the “% Activation” value is given as 103.5% and the EC50 was found to be 9.6 nM. In addition, on CFTR G551D mutant, the “% Activation” value is 82.4% and the EC50 was found to be 539 nM.
Consider `CC(C)C1(O)CN(C(=O)c2ncc(S(=O)(=O)c3ccc(C(F)(F)F)cc3)cc2N)C1` [Compound 159, (3-amino-5-{[4-(trifluoromethyl)phenyl]sulfonyl}pyridin-2-yl)[3-hydroxy-3-(propan-2-yl)azetidin-1-yl]methanone], for which, on CFTR ΔF508 mutant, the “% Activation” value was found to be 111.1% and the response was half-maximal at 4.4 nM (EC50). For the same compound, at CFTR G551D mutant, the “% Activation” value was 46.6% and a half-maximal effect (EC50) was put at 238 nM.
For `Nc1cc(S(=O)(=O)c2ccc(OC(F)(F)F)cc2F)cnc1C(=O)N1CC(O)C1` [Compound 77, (3-amino-5-{[2-fluoro-4-(trifluoromethoxy)phenyl]sulfonyl}pyridin-2-yl) (3-hydroxyazetidin-1-yl)methanone], the “% Activation” value is on record as 98.8% at CFTR ΔF508 mutant and 41.0% on CFTR G551D mutant. Further, the EC50 at CFTR ΔF508 mutant was 15.3 nM; on CFTR G551D mutant it was above 3330 nM.

As usually defined, the EC50 is the concentration giving half of the maximal effect.

These data come from patent US10047051B2, “Substituted pyridines and method of use” (AbbVie S.á{acute over (.)}r.l., priority 2015, dated 2018).
